In patent publication US12448395B2 (BRISTOL-MYERS SQUIBB COMPANY, priority 2019, dated 2025):
Structures can show the parent of a compound that is named as a salt.

Assays:
Type in all cases: cell-based
human TLR7 = target: T1, human TLR7 (Homo sapiens, UniProt Q9NYK1); assay: TLR7 inhibition reporter assay (HEK-Blue SEAP, gardiquimod stimulation); conditions: HEK-Blue cells overexpressing human TLR7, gardiquimod 7.5 μM
T1 sequence (Q9NYK1 27-1049): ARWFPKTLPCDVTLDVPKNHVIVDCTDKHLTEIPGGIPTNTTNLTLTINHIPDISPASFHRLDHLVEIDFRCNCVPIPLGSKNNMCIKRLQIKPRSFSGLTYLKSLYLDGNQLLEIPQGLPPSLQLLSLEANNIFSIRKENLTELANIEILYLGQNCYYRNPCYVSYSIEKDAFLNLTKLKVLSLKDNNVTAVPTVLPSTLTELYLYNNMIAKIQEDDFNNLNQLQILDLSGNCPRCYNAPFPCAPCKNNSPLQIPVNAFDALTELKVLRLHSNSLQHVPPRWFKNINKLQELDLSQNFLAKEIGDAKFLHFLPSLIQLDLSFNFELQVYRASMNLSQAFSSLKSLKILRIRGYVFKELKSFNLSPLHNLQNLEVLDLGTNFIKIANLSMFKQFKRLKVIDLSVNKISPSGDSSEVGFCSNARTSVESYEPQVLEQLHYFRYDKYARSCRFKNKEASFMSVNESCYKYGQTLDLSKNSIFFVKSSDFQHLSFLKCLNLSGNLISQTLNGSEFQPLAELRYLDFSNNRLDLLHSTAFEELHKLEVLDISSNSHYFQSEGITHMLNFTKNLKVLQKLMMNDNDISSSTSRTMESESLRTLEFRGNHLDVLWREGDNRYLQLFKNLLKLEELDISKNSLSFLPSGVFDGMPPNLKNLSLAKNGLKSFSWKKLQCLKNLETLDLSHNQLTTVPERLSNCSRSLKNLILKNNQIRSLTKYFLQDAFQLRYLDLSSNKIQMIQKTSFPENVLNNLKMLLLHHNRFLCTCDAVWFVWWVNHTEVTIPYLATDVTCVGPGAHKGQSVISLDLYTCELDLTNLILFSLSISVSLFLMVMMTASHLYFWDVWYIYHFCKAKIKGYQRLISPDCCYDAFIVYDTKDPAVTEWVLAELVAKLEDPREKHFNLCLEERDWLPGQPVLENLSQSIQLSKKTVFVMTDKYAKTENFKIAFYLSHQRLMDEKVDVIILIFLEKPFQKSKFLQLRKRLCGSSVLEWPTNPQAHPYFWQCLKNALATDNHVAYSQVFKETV
Procedure: (§1) TLR7/8/9 Inhibition Reporter Assays
(§2) HEK-Blue™-cells (Invivogen) overexpressing human TLR7, TLR8 or TLR9 receptors were used for screening inhibitors of these receptors using an inducible SEAP (secreted embryonic alkaline phosphatase) reporter gene under the control of the IFN-β minimal promoter fused to five NF-κB and AP-1-binding sites. Briefly, cells are seeded into Greiner 384 well plates (15000 cells per well for TLR7, 20,000 for TLR8 and 25,000 for TLR9) and then treated with test compounds in DMSO to yield a final dose response concentration range of 0.05 nM-50 μM. After a 30 minute compound pre-treatment at room temperature, the cells are then stimulated with a TLR7 ligand (gardiquimod at a final concentration of 7.5 μM), TLR8 ligand (R848 at a final concentration of 15.9 μM) or TLR9 ligand (ODN2006 at a final concentration of 5 nM) to activate NF-κB and AP-1 which induce the production of SEAP. After a 22 hour incubation at 37° C., 5% CO2, SEAP levels are determined with the addition of HEK-Blue™ Detection reagent (Invivogen), a cell culture medium that allows for detection of SEAP, according to manufacturer's specifications. The percent inhibition is determined as the % reduction in the HEK-Blue signal present in wells treated with agonist plus DMSO alone compared to wells treated with a known inhibitor.

human TLR8 = target: T2, human TLR8 (Homo sapiens, UniProt Q9NR97); assay: TLR8 inhibition reporter assay (HEK-Blue SEAP, R848 stimulation); conditions: HEK-Blue cells overexpressing human TLR8, R848 15.9 μM
T2 sequence (Q9NR97 27-1041): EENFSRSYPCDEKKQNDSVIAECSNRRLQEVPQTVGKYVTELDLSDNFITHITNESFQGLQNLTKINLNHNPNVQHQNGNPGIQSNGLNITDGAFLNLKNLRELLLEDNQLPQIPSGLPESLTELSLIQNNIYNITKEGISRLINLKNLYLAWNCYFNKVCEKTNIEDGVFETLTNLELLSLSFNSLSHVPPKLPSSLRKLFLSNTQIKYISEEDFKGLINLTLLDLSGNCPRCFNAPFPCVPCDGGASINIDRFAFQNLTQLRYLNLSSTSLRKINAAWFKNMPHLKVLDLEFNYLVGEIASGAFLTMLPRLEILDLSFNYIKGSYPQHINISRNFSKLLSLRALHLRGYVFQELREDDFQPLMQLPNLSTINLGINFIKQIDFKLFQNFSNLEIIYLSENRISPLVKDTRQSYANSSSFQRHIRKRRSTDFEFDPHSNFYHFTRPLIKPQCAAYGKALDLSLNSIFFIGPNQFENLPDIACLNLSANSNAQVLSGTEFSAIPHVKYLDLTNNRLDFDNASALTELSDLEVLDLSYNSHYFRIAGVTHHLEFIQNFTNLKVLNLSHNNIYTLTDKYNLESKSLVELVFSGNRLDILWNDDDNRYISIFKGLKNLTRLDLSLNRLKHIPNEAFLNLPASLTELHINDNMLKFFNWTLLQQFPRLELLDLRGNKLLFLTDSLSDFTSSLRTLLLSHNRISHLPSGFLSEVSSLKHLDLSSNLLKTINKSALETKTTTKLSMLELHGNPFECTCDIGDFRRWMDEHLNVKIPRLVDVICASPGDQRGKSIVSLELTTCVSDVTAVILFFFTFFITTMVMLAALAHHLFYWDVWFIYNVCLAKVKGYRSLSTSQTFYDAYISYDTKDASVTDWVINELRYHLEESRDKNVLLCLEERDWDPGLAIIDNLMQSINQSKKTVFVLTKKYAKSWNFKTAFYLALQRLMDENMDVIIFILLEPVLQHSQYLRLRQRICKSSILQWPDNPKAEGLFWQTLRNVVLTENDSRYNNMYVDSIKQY
Procedure: as §1, §2

human TLR9 = target: T3, human TLR9 (Homo sapiens, UniProt Q9NR96); assay: TLR9 inhibition reporter assay (HEK-Blue SEAP, ODN2006 stimulation); conditions: HEK-Blue cells overexpressing human TLR9, ODN2006 5 nM
T3 sequence (Q9NR96 26-1032): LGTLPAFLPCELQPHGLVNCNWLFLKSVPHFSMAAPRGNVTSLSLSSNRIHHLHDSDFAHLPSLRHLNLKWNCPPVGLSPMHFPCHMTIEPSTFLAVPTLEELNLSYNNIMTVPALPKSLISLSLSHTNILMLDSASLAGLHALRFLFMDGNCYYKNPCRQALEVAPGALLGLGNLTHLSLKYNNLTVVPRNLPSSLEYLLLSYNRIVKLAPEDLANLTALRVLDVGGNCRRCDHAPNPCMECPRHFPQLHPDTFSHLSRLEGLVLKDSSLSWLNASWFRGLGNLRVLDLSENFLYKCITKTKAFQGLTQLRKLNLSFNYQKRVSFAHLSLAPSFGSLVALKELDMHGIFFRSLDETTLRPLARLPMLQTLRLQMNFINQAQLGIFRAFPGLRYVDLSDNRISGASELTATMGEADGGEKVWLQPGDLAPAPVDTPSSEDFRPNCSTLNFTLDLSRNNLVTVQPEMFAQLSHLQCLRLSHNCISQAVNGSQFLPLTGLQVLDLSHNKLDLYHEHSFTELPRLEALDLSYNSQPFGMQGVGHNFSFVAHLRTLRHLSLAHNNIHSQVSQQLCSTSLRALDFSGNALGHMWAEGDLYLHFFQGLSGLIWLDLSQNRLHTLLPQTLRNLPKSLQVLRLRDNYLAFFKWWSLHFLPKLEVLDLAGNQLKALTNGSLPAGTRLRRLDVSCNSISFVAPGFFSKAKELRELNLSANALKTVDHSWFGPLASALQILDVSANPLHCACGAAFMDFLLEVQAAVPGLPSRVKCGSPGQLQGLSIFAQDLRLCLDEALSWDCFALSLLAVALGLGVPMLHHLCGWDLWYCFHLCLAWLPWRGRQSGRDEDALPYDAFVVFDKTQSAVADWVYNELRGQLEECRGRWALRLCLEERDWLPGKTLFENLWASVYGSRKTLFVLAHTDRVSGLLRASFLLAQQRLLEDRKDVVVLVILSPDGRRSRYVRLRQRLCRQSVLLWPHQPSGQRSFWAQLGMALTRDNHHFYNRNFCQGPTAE
Procedure, shortened: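 Screening used HEK-Blue cells overexpressing one human TLR (7, 8 or 9) and an IFN-β minimal promoter–NF-κB/AP-1 SEAP construct. Stimulation lasted 22 h at 37 °C with receptor-specific agonist: gardiquimod, R848 or ODN2006 at 7.5 μM, 15.9 μM and 5 nM.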

| IC50 (human TLR7) [nM] | IC50 (human TLR8) [nM] | IC50 (human TLR9) [µM] | SMILES |
| --- | --- | --- | --- |
| 2.92 | 0.31 | 20.7 | Cc1c(-c2[nH]c3sc(C4CCC(NCC(=O)N5CCOCC5)CC4)nc3c2C(C)C)cn2ncnc2c1C (single isomer, unassigned) [Example 207, 2-((4-(5-(7,8-dimethyl-[1,2,4]triazolo[1,5-a]pyridin-6-yl)-6-isopropyl-4H-pyrrolo[3,2-d]thiazol-2-yl)cyclohexyl)amino)-1-morpholinoethan-1-one] |
| 0.18 | 0.09 | 15.8 | Cc1c(-c2[nH]c3sc(N4CCNC[C@H]4C)nc3c2C(C)C)cn2ncnc2c1C [Example 308, (R)-5-(7,8-dimethyl-[1,2,4]triazolo[1,5-a]pyridin-6-yl)-6-isopropyl-2-(2-methylpiperazin-1-yl)-4H-pyrrolo[3,2-d]thiazole, HCl] |
